Data as given in ChEMBL document CHEMBL1150934, “Cyclic polyketide peroxides and acyclic diol analogues from the sponge Plakortis lita” (J Nat Prod, 1998).
Active and inactive are the calls of the source. The calls are words filed in the database; no cut-off is given here.

Test system: PO3
Test: Antitumor activity in mouse PO3 cells xenografted mouse at 304.5 mg/kg after 31 days
Type: functional, organism-based
Parameters: dose 304.5 mg/kg

## CC/C=C/[C@]1(CC)C[C@@H](CC)[C@H](CC(=O)OCC)OO1
  Activity: inactive
